ChEMBL document CHEMBL1165927, “Insulinomimetic activity of two new gallotannins from the fruits of Capparis moonii” (2010)
Activity calls are given as the source filed them. No cut-off for these calls is given here.

Legend:
[1] = tested on: L6; assay: Increase in GLUT4 mRNA expression in rat L6 cells at 50 uM by RT-PCR; type: functional, cell-based
[2] = tested on: L6; assay: Inhibition of glucose uptake in rat L6 myocyte at 10 ng/ml after 24 hrs; type: functional, cell-based
[3] = molecular target: Insulin receptor (Rattus norvegicus) (UniProt P15127); assay: […] in rat L6 cells after 24 hrs by immunoprecipitation; type: cell-based
[4] = tested on: L6; assay: Increase in PI3K mRNA expression in rat L6 cells at 10 ng/ml by RT-PCR; type: functional, cell-based
[5] = molecular target: T1, Insulin receptor substrate 1 (Rattus norvegicus) (UniProt P35570); assay: […] in rat L6 cells after 24 hrs by immunoprecipitation; type: cell-based
T1 sequence (whole entry): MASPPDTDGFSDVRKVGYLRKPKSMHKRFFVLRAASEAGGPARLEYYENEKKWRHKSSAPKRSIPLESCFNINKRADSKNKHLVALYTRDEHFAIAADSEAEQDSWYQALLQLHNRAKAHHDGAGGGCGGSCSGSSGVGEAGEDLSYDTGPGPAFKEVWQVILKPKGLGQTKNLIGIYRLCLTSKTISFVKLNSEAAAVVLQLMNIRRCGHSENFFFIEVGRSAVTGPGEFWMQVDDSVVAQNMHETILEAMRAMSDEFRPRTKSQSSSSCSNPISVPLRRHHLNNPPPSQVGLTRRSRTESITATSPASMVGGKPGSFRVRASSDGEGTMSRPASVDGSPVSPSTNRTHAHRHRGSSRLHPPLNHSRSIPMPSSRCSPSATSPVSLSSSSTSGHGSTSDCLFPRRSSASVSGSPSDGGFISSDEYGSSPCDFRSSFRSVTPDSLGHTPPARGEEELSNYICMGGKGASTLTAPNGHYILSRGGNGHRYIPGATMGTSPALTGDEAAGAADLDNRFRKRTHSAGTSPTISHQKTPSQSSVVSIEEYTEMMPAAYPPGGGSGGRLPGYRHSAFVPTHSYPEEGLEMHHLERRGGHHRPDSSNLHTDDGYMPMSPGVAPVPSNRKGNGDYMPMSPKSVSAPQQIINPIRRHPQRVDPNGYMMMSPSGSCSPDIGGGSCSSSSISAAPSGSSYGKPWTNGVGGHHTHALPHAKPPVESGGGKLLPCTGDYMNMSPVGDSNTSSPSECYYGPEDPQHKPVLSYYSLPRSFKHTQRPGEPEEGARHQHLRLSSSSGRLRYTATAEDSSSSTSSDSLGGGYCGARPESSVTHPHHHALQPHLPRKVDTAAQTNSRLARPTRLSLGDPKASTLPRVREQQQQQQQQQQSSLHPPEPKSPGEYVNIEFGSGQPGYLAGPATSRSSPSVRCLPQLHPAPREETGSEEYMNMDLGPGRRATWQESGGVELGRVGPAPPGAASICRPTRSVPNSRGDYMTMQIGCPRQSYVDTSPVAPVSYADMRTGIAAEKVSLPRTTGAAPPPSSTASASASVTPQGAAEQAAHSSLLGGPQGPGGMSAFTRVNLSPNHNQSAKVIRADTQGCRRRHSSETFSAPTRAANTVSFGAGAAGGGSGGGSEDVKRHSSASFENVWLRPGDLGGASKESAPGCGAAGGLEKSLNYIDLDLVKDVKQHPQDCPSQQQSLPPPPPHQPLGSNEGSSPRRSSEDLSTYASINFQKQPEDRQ

[6] = tested on: L6; assay: Inhibition of glucose uptake in rat L6 myocyte at 50 uM after 24 hrs; type: functional; conditions: L6, 24 h, values are per cent of control
[7] = tested on: L6; assay: Increase in PI3K mRNA expression in rat L6 cells at 100 ng/ml by RT-PCR; type: functional, cell-based

Insulin receptor (Rattus norvegicus), sequence (P15127 27-759 limits assumed): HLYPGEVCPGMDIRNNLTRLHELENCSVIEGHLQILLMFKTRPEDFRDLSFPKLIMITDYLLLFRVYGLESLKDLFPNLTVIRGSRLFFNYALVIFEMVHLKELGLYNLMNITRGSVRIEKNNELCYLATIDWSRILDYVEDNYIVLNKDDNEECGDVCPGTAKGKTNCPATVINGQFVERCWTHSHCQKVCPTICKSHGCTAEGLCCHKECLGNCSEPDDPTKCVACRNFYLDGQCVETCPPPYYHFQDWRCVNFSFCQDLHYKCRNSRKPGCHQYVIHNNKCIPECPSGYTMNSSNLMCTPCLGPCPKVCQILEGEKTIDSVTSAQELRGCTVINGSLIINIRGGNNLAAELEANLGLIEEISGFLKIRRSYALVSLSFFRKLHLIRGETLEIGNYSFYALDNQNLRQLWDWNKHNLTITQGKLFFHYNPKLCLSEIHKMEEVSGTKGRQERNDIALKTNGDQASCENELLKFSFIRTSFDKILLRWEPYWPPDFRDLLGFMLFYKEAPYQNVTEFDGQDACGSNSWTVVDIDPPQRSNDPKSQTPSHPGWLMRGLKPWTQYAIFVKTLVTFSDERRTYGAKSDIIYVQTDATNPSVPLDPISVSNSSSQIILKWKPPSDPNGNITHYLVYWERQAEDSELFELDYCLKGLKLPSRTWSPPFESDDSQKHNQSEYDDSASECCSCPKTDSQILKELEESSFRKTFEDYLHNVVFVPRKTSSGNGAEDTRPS
Insulin receptor (Rattus norvegicus), sequence (P15127 764-1383 limits assumed): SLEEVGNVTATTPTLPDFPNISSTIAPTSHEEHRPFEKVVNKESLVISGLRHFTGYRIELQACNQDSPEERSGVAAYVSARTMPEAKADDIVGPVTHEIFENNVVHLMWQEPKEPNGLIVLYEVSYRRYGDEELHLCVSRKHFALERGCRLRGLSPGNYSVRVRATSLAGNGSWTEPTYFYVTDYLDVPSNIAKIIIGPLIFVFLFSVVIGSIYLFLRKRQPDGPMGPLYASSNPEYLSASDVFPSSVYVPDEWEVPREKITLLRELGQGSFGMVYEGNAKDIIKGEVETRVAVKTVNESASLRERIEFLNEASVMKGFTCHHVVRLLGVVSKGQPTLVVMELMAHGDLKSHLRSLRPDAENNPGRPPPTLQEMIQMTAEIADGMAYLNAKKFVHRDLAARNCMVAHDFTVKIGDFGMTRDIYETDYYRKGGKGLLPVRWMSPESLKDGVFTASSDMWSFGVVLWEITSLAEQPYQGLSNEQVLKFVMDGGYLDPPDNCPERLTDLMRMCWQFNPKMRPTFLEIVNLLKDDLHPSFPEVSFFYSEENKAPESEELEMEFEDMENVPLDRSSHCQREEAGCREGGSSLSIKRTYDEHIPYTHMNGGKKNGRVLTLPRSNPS

Row | inhibition [3] | inhibition [5] | SMILES | Activity [1] | inhibition [2] | Activity [4] | residual activity at 50 µM [6] | Activity [7]
1 | Active | Active | O=C(O)CC(C(=O)O)C1c2c(C(=O)O[C@H]3[C@H](OC(=O)c4cc(O)c(O)c(O)c4)O[C@H](COC(=O)c4cc(O)c(O)c(O)c4)[C@@H](O)[C@H]3OC(=O)c3cc(O)c(O)c(O)c3)cc(O)c(O)c2OC(=O)C1O (stereo partly specified) | Active | Dose-dependent effect | Active | – | –
2 | – | – | CN(CCOc1ccc(CC2SC(=O)NC2=O)cc1)c1ccccn1 (stereo unspecified) [ROSIGLITAZONE] | – | – | – | 240% | –
3 | Active | Active | COC(=O)CC(C(=O)O)C1c2c(C(=O)O[C@H]3[C@H](OC(=O)c4cc(O)c(O)c(O)c4)O[C@H](COC(=O)c4cc(O)c(O)c(O)c4)[C@@H](O)[C@H]3OC(=O)c3cc(O)c(O)c(O)c3)cc(O)c(O)c2OC(=O)C1O (stereo partly specified) | Active | Dose-dependent effect | – | – | Active
